Results published in US20250161255A1, “NEW THERAPY AND PREVENTION FOR SUPPRESSING AGING-RELATED DISORDERS INCLUDING SARCOPENIA” (priority 2022, published 2025).
Counter-ions that a name gives are not always drawn.

What was measured:
aged mice (C57BL/6J) = assay: Treadmill test of muscle strength (endurance) in aged mice; assay type: in vivo, mouse; details: vs PBS
Source text: To confirm that muscle strength decline would be observed in model mice (C57BL/6J) (purchased from ORIENTAL YEAST), muscle strength (endurance) in 79-week-old aged mice was checked in a treadmill test as follows.
Before recording performance, the mice were trained for three days so as to become familiarized with the equipment. An electrical stimulation grid was adjusted to 1 mA and the gradient was set to 15 degrees. On the first day of training, the mice were made to walk on the treadmill for 10 min at a speed of 10 m/min, rest for 10 min, and then walk for 10 min at a speed of 10 m/min. On the second and third days, the first two steps were performed under the same conditions as on the first day, after which walking was started at 10 m/min, and then increasing the speed by 1 m/min each minute up to a maximum speed of 20 m/min. Maximum exercise endurance was measured on the fourth day. Six mice were placed on the treadmill and the belt speed was started at 5 m/min for 5 min to warm up the mice. The speed was increased by 1 m/min to a maximum of 20 m/min. After 5 minutes of running, the speed was increased from 20 m/min to 21 m/min for 10 minutes. The mice were then forced to run at 22 m/min until they remained on the electrical stimulation grid for 10 seconds, and the distance they ran until they remained for 10 seconds was measured. […]

[1] = Body weight and behaviour observed during the administration period; assay type: in vivo, mouse
Description: L-ethylcysteine hydrochloride was orally administered to aged mice from 40 to 79 weeks of age. The dose was 1000 mg/kg/day.
Ambroxol hydrochloride was orally administered to aged mice from 50 to 77 weeks of age. The dose was 9.21 mg/kg/day.

[2] = system: gene expression in (gastrocnemius or soleus) muscle; assay: Genetic analysis (RNA-seq) of muscle of administered aged mice; assay type: in vivo, mouse; details: FDR <0.05
Source text: The procedure and reagents used are as follows. The quality of all reads was checked using FastQC v0.11.8 and low-quality reads were removed using Trimmomatic (ver 0.38). LEADING: 20 (cut bases off the start of a read if quality score is less than 20), TRAILING: 20, SLIDING WINDOW: 4:15 (window size 4, average quality 15), MINLEN: 36 (drop reads if the length is less than […]) Each read obtained after filtering was mapped to the reference genome GRCm38 using STAR (ver2.7.0.f). Mapping was performed using the default values of STAR. Since the reads were paired-end with a length of 150 bp, a STAR index for reference genome GRCm38 was created in accordance with the length of 150 to perform mapping. Index generation was performed as follows: • Run Mode; genomeGenerate • Reference; GRCm38 • Annotation file; genecode version M24 • sjdbOverhang; 150 • alignment was performed using the index generated above. • Other than the foregoing, no options were added and the default values were used. • (Basic options were as follows.) • genomeDir; index generated above […] At this time, gene symbols as defined in genecode version M24 were counted. Regarding the calculated count numbers, genes with count data of 0 in all samples were filtered, TMM normalization was performed using edgeR (ver3.22.3), and correction between samples was performed. First, to obtain an overview of the data, principal component analysis and clustering analysis were performed using the count data after removing low-expressing genes. Expression changes of the specified patterns were compared based on the obtained expression values. edgeR was used to test for differentially expressed genes. […] Gene enrichment analysis was performed on the obtained variable genes using gprofiler2 (version 0.1.6). The expression values of the obtained differentially expressed genes were normalized, then extracted and visually depicted as a heat map to confirm the differential expressions. […] This analysis was performed using […] 1.8.0). In […], analysis was performed using a mouse database relating to 10 kbp upstream the TSS, stored in […]. Details of the analysis are as follows (cited from https://scenic.aertslab.org/tutorials/[…]). In the present example, gene regulation involved in the ambroxol hydrochloride of the present invention was investigated using model mice to identify genes useful for the diagnosis and treatment of sarcopenia, in the same manner as in Example 1. […] From the analysis of upstream transcription factors shown in FIG. 12, new transcription factors involved in differentiation and cellular senescence were observed as upstream factors.

aged mice [3] = assay: Contextual fear conditional (CFC) test of fear memory; assay type: in vivo, mouse; details: 77-week-old aged mice after ambroxol hydrochloride administration; vs PBS; FIG. 8
Description: Cognition and memory of the 77-week-old aged mice of Example 2-2 were evaluated by means of a contextual fear conditional (CFC) test. In the cognition and memory experiment, memory is evaluated in two ways: fear memory and spatial memory; fear memory is evaluated based on the time the subject freezes and stops moving after receiving an electric shock. […] Regarding spatial memory, when a mouse is placed on a white disk and a strong light is illuminated thereon, the mouse, which is nocturnal, will try to escape to a dark place. The disk has 20 holes, of which 19 are blocked and only one through which escape is possible. The mouse is then trained for six days to memorize the location of that one hole. The degree to which the mouse could remember the location of the hole was evaluated one day later and one week later (reference: https://www.nature.com/protocolexchange/protocols/349Reiserer).
In this example, fear memory was evaluated using the CFC test. Fear memory was assessed by CFC after administration of ambroxol hydrochloride to 77-week-old, aged mice of Example 2-2.

C2C12 cells = assay: Gene expression in cultured C2C12 cells, treated versus untreated; assay type: cell-based, mouse; details: treated vs untreated cells; Q<0.05; FIG. 13
Description: C2C12 cells, which are derived from striated muscle of mice, were cultured and treated with ambroxol hydrochloride.

model mice (C57BL/6J) [4] = assay: Frailty index test; assay type: in vivo, mouse
Description: The above model mice were orally administered 1000 mg/kg/day of ambroxol hydrochloride from 50 to 81 weeks of age, and frailty associated with aging was confirmed by means of a frailty index test. The evaluated items of the frailty index test are as follows, and an evaluation standard in accordance with clinical symptoms (0=no symptoms, 0.5=mild symptoms, 1=severe symptoms) was employed. • Hair, skin • Alopecia Whether there is hair loss • Loss of fur color Change in fur color from black to gray, brown, or white • Dermatitis Whether there is skin inflammation • Loss of whiskers Loss of hair and whiskers around nose • Coat condition Condition of coat, smoothness and shine of fur • Physical/musculoskeletal • Tumors Presence/absence of tumor • Distended abdomen Abdomen enlarged compared to surrounding • Kyphosis Check by stroking back • Tail stiffening Whether tail wraps freely when stroked, stiffness • Gait disorder Difficulty in walking, wide stance • Tremor Whether there are age-related tremors • Forelimb grip strength Strength of grip on wire mesh when pulled by the tail • Body condition score Check visual signs of bony protuberance, muscle wasting, obesity • Vestibulocochlear/auditory • Vestibular disturbance Balance, orientation, acceleration • Hearing loss Whether there is response when clicker is sounded from behind • Ocular/nasal • Cataracts Clouding of lens of eye • Corneal opacity Cloudy cornea • Eye discharge/swelling Eyes swollen, abnormal secretions or crusting • Microphthalmia One or both eyes are small and/or sunken • Vision loss Whether the mouse reaches toward the ground when lowered by the tail (also use a ruler) • Menace reflex Whether there is response when foreign object is brought near eyes • Nasal discharge Whether there is nasal discharge • Digestive/urogenital • Malocclusion Whether there are malocclusions or overgrown teeth • Rectal prolapse Whether there is protrusion of rectum • Vaginal/uterine/penile prolapse Check genitals • Diarrhea Check cage bedding • Respiratory • Breathing rate/depth Check for dyspnea, breath sounds (rales), tachypnea, • Discomfort • Mouse Grimace Scale Assess nose bulge, cheek bulge, ear angle, whisker change • Piloerection Whether there is stiff hair or bristling even when stroked • Other (compared to reference values) • Temperature Take average of two readings • Weight Measure weight
(§1) Grip strength was evaluated by means of a measurement of grip strength called the grip test, using a muscle strength measuring device (Muromachi Kikai, MK-380S). Specifically, the mouse was made to grasp a mesh made of wire (wire mesh) with its front and back legs, and its tail was pulled back horizontally little by little until the mouse released the wire mesh. The maximum muscle strength at that time was measured.
The above model mice were given 307.2 mg/kg/day of L-carbocysteine in drinking water for 23 weeks starting at the age of 49 weeks, and frailty index test was performed as in Example 2-5 above to confirm age-related frailty and the like.

model mice (C57BL/6J) [5] = assay: Grip test with muscle strength measuring device (MK-380S); assay type: in vivo, mouse; details: oral 1000 mg/kg/day from 50 to 81 weeks of age; FIG. 19
Description: as §1

aged mice [6] = assay: Muscle mass in aged mice, with or without exercise; assay type: in vivo, mouse
[7] = mice administered ambroxol hydrochloride, FIG. 9
[8] = aged mice administered L-ethylcysteine hydrochloride, FIG. 2

Nc1c(Br)cc(Br)cc1CNC1CCC(O)CC1 (stereo not shown) [Ambroxol hydrochloride, ambroxol hydrochloride]
muscle strength (endurance) by treadmill test (aged mice (C57BL/6J); oral 9.21 mg/kg/day from 50 to 77 weeks of age, measured at 77 weeks, FIG. 7): increase in muscle strength
changes in body weight or behavioral abnormalities during administration ([1]; oral 9.21 mg/kg/day, 50 to 77 weeks of age): no significant changes in body weight or behavioral abnormalities
number of genes with decreased expression in muscle [2, 7]: 204 genes
number of genes with increased expression in muscle [2, 7]: 164 genes
CFC Freezing scores / cognitive performance (aged mice [3]): improved CFC Freezing scores and increased cognitive performance
number of genes with decreased expression in C2C12 cells (C2C12 cells): 54 genes
number of genes with increased expression in C2C12 cells (C2C12 cells): 53 genes
frailty index: coat condition (model mice (C57BL/6J) [4]; oral 1000 mg/kg/day from 50 to 81 weeks of age): improved
frailty index: skin condition (hair, skin) (model mice (C57BL/6J) [4]; oral 1000 mg/kg/day from 50 to 81 weeks of age, FIG. 18): improved
frailty index: osteoporosis (physical/musculoskeletal) (model mice (C57BL/6J) [4]; oral 1000 mg/kg/day from 50 to 81 weeks of age, FIG. 20): improved
muscle strength (grip strength) (model mice (C57BL/6J) [5]): improved

CCOC(=O)[C@@H](N)CS [L-ethylcysteine hydrochloride]
muscle strength (endurance) by treadmill test (aged mice (C57BL/6J); oral 1000 mg/kg/day from 40 to 79 weeks of age, measured at 79 weeks, FIG. 1): increase in muscle strength
changes in body weight or behavioral abnormalities during administration ([1]; oral 1000 mg/kg/day, 40 to 79 weeks of age): no significant changes in body weight or behavioral abnormalities
muscle mass in aged mice (aged mice [6]; administration alone): increased muscle mass
muscle mass in aged mice (aged mice [6]; administration in combination with exercise): significantly restored muscle mass
number of genes with decreased expression in muscle [2, 8]: 92 genes
number of genes with increased expression in muscle [2, 8]: 158 genes

N[C@@H](CSCC(=O)O)C(=O)O [L-carbocysteine]
frailty index: dermatitis (model mice (C57BL/6J) [4]; 307.2 mg/kg/day in drinking water for 23 weeks from 49 weeks of age): improves
frailty index: alopecia (model mice (C57BL/6J) [4]; 307.2 mg/kg/day in drinking water for 23 weeks from 49 weeks of age, FIG. 22): improves
frailty index: fur color loss (gray hair) (model mice (C57BL/6J) [4]; 307.2 mg/kg/day in drinking water for 23 weeks from 49 weeks of age, FIG. 23): improves
frailty index: physical condition score (bone and muscle) (model mice (C57BL/6J) [4]; 307.2 mg/kg/day in drinking water for 23 weeks from 49 weeks of age, FIG. 25): improvement in physical condition
total score of the frailty index test (model mice (C57BL/6J) [4]; 307.2 mg/kg/day in drinking water for 23 weeks from 49 weeks of age, FIG. 26): improvement in the total value
